Common to all, as to test: Indolinone probe titration (fluorescence), probe of 3.2
Common to all, as to format: binding
What all share (settings): Table 4

In test [1] the target is T1, wild-type ABL kinase domain (Homo sapiens, UniProt P00519).
T1 construct: ABL kinase domain (corresponding to residues 229-512); GST (N, cleaved yes); PreScission cleavage site (N, cleaved yes); made in house; host or cells: High5 insect cells (baculovirus)
T1 sequence (P00519 229-512): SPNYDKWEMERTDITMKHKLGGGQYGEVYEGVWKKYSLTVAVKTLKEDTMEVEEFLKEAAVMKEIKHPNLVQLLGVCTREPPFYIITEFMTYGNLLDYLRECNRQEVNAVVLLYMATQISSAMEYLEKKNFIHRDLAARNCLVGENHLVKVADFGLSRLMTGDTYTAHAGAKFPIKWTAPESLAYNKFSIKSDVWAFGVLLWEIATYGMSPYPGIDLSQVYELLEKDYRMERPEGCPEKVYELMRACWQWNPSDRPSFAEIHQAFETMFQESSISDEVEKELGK
Here is the method: (§1) The titration experiment was performed as follows: 10 nM ABL kinase domains (wild-type or T315I mutant), indolinone concentration from 3 μM to 0, with dilution steps 1:1.5 in 50 mM TrisHCl, pH 7.5, 150 mM NaCl, 5 mM MgCl2, 1 mM MnCl2, 1 mM DTT, 1% DMSO, 3 μM NaaVO4(buffer 1).

Test [2] concerns the target T2, T315I ABL mutant kinase domain (Homo sapiens, UniProt P00519, T315I).
T2 construct: ABL kinase domain (corresponding to residues 229-512); GST (N, cleaved yes); PreScission cleavage site (N, cleaved yes); made in house; host or cells: High5 insect cells (baculovirus)
T2 sequence (P00519 229-512 T315I): T1 sequence (P00519 229-512) with T87I
As to the method:
as §1

The target of test [3] is T3, Wild-type ABL 0P (unphosphorylated) kinase domain (Homo sapiens, UniProt P00519).
T3 construct: ABL kinase domain (corresponding to residues 229-512); GST (N, cleaved yes); PreScission cleavage site (N, cleaved yes); made in house; host or cells: High5 insect cells (baculovirus)
T3 sequence (P00519 229-512): T1 sequence (P00519 229-512)
As to the method: as §1

Structures are written as SMILES. Numbering of substitutions follows the chain as printed.

Regarding `CCN(CC)CCNC(=O)c1c(C)[nH]c(/C=C2\C(=O)Nc3ccc(S(=O)(=O)NC)cc32)c1-c1ccc(F)cc1F` [N-[2-(diethylamino)ethyl]-4-(2,4-difluorophenyl)-2-methyl-5-((Z)-{5-[(methylamino)sulfonyl]-2-oxo-1,2-dihydro-3H-indol-3-ylidene}methyl)-1H-pyrrole-3-carboxamide], the Kd – broadly, the constant that tells how readily two partners part at equilibrium – is 330 ± 120 nM in test [1], 20 ± 8 nM in test [2] and 200 ± 100 nM in test [3].
